# Reference: patent publication US6734186B1, “Compounds for the treatment of female sexual dysfunction” (Pfizer Inc., priority 1999, dated 2004)
# “Also recorded” adds a separate entry of the source. Where two headings read alike, the source gives them in different places.
# How the values were obtained:
# [1] = test system: anaesthetised rabbit model of sexual arousal; assay: Increase in vaginal blood flow after iv infusion of vasoactive agents, anaesthetised rabbit model of sexual arousal (laser Doppler); format: in vivo
# Description: (§1) A ventral midline incision was made, at the caudal end of the pubis, to expose the pubic area. Connective tissue was removed to expose the tunica of the clitoris, ensuring that the wall was free from small blood vessels. The external vaginal wall was also exposed by removing any connective tissue. One laser Doppler flow probe was inserted 3 cm into the vagina, so that half the probe shaft was still visible. A second probe was positioned so that it lay just above the external clitoral wall. The position of these probes was then adjusted until a signal was obtained. A second probe was placed just above the surface of a blood vessel on the external vaginal wall. Both probes were clamped in position.
# (§2) Vaginal and clitoral blood flow was recorded either as numbers directly from the Flowmeter using Po-ne-mah data acquisition software (Ponemah Physiology Platform, Gould Instrument Systems Inc), or indirectly from Gould chart recorder trace. Calibration was set at the beginning of the experiment (0-125 ml/min/100 g tissue).
# An initial infusion of Hepsaline (50UI/ml) was infused to act as a negative control.
# [2] = test system: anaesthetised rabbit model of sexual arousal; assay: Increase in clitoral blood flow after iv infusion of vasoactive agents, anaesthetised rabbit model; format: in vivo; settings: VIP 200 μg/kg iv infusion
# Description: as §1, §2
# anaesthetised rabbit = test system: anaesthetised rabbit
# Method: Female New Zealand rabbits (˜2.5 kg) were pre-medicated with a combination of Medetomidine (Domitor®) 0.5 ml/kg i.m., and Ketamine (Vetalar®) 0.25 ml/kg i.m. whilst maintaining oxygen intake via a face mask. The rabbits were tracheotomised using a Portex™ uncuffed endotracheal tube 3 ID., connected to ventilator and maintained at a ventilation rate of 30-40 breaths per minute, with an approximate tidal volume of 18-20 ml, and a maximum airway pressure of 10 cm H2O. Anaesthesia was then switched to Isoflurane and ventilation continued with O2 at 2 l/min. The right marginal ear vein was cannulated using a 23G or 24G catheter, and Lactated Ringer solution perfused at 0.5 ml/min. The rabbit was maintained at 3% Isoflurane during invasive surgery, dropping to 2% for maintenance anaesthesia.
# The left groin area of the rabbit was shaved and a vertical incision was made approximately 5 cm in length along the thigh. The femoral vein and artery were exposed, isolated and then cannulated with a PVC catheter (17G) for the infusion of drugs and compounds. Cannulation was repeated for the femoral artery, inserting the catheter to a depth of 10 cm to ensure that the catheter reached the abdominal aorta. This arterial catheter was linked to a Gould system to record blood pressure. Samples for blood gas analysis were also taken via the arterial catheter. Systolic and diastolic pressures were measured, and the mean arterial pressure calculated using the formula (diastolic x2÷systolic)+3. Heart rate was measured via the pulse oxymeter and Po-ne-mah data acquisition software system (Ponemah Physiology Platform, Gould Instrument Systems Inc).
# isolated rabbit vagina = assay: Relaxation of precontracted (1 μM phenylephrine) isolated rabbit vaginal strips; format: cell-based
# Method: 3.7 (a). Rabbit vagina in vitro preparation:—Female New Zealand white rabbits (2.0-3.0 kg) were killed by cervical dislocation. The abdominal cavity was opened and the vagina excised. Tissue strips were mounted longitudinally in Wesley Co. 5 ml silanised organ chambers with braided silk sutures (6/0 gauge) at an initial resting tension of 1.5 g in Krebs bicarbonate buffer maintained at 37° C. and gassed with 95%O2/5%CO2. The upper ligature of each tissue strip was attached to a 10 g capacity force-displacement transducer and changes in isometric force were measured and recorded using a DART in vitro data capture system. Tissues were allowed to equilibrate for 1.5 hours and were regularly washed with Krebs.
# Each tissue was contracted using 1 μM bath concentration of phenylephrine. […] Tissues then received either a test agent (eg NEP or PDE inhibitor) or DMSO vehicle (time matched control).
# For the purpose of curve fitting the minimum relaxation response was constrained to 0% and the maximum relaxation response was allowed to free fit.
# [3] = test system: human vaginal smooth muscles cell cultures; settings: VIP 0.5 μM; Traish 1999; cited from earlier work
smiles,measurement,setting,value
"CC[C@H](C)[C@H](NC(=O)[C@H](CO)NC(=O)[C@H](CC(N)=O)NC(=O)[C@H](CC(C)C)NC(=O)[C@H](Cc1ccc(O)cc1)NC(=O)[C@H](CCCCN)NC(=O)[C@H](CCCCN)NC(=O)[C@@H](NC(=O)[C@H](C)NC(=O)[C@H](CCSC)NC(=O)[C@H](CCC(N)=O)NC(=O)[C@H](CCCCN)NC(=O)[C@H](CCCNC(=N)N)NC(=O)[C@H](CC(C)C)NC(=O)[C@H](CCCNC(=N)N)NC(=O)[C@@H](NC(=O)[C@H](Cc1ccc(O)cc1)NC(=O)[C@H](CC(N)=O)NC(=O)[C@H](CC(=O)O)NC(=O)[C@@H](NC(=O)[C@H](Cc1ccccc1)NC(=O)[C@@H](NC(=O)[C@H](C)NC(=O)[C@H](CC(=O)O)NC(=O)[C@H](CO)NC(=O)[C@@H](N)Cc1c[nH]cn1)C(C)C)[C@@H](C)O)[C@@H](C)O)C(C)C)C(=O)N[C@@H](CC(C)C)C(=O)N[C@@H](CC(N)=O)C(N)=O [VIP, Vasoactive intestinal peptide]",increase in vaginal blood flow,[1]; VIP 60 μg/kg intravenous,24.7±3.6 ml/min/100 g tissue
same,time blood flow remained elevated above basal post-infusion,[1]; VIP 60 μg/kg intravenous,about 11 minutes
same,increase in vaginal blood flow,[1]; VIP 6.0 g/kg (so in the source),7.5±1.3 ml/min/100 g tissue
same,increase in clitoral blood flow,[2],115%
same,increase in heart rate,anaesthetised rabbit; VIP 6.0 μg/kg iv,16±4 beats per minute
same,reduction in mean arterial blood pressure,anaesthetised rabbit; VIP 6.0 μg/kg iv,13.2±0.7 mm Hg
same,increase in heart rate,anaesthetised rabbit; VIP 60.0 μg/kg iv,111±30 beats per minute
same,reduction in mean arterial blood pressure,anaesthetised rabbit; VIP 60.0 μg/kg iv,14.7±1.37 mm Hg
same,subsequent increase in mean arterial blood pressure,"anaesthetised rabbit; VIP 60.0 μg/kg iv, following heart rate increase",8.5±1.4 mm Hg
same,effect on mean arterial blood pressure,anaesthetised rabbit; anaesthetised rabbit,significant depression
same,relaxation of precontracted isolated vagina,isolated rabbit vagina; VIP 0.1 μM,circa 80%
same,EC50,"isolated rabbit vagina; precontracted with 1 μM phenylephrine, read-out: EC50 for relaxation in isolated vaginal tissue",0.0188 ± 0.0006 µM
same,effect on cAMP levels in vaginal smooth muscle cell cultures,[3],no effect; also recorded: fails to elevate
